Laboratory results: patent US20180273564A1, “CARBON MONOXIDE RELEASING MOLECULES” (AUCKLAND UNISERVICES LIMITED, priority 2015, published 2018)
Several values for one entry are separate records, joined by “and”; a condition that tells them apart may be missing. Equal values may be shown once. Entries after “also recorded” stand apart in the source; their conditions may differ.

Columns and labels:
[1] = system: NCI-H460 (large cell lung carcinoma) cells; experiment: In vitro anticancer activity, sulforhodamine B assay; type: cell-based; details: NCI-H460, 72 h compound exposure, mean of 3 independent experiments
Procedure: (§1) HCT116 (colon cancer cells) and NCI-H460 (large cell lung carcinoma) cells were supplied by ATCC, while SiHa cells (cervical cancer) were supplied by Dr. David Cowan, Ontario Cancer Institute, Canada. Cells were maintained in αMEM (Life Technologies) with 5% FCS (fetal calf serum from Moregate Biotech) at 37° C. in a humidified incubator with 5% CO2. Cells were seeded at the appropriate density and allowed to settle for 24 hours, before the compounds (in 0.5% DMSO at the highest concentration) were added at 3-fold serial dilutions. After 72 h compound exposure, the cells were fixed with 10% TCA (trichloroacetic acid from Merck Millipore) for 1 h at 4° C., then washed before addition of 50 μl of 0.4% sulforhodamine B solution (Sigma Aldrich) for 30 min at room temperature in the dark. After washing with 1% acetic acid, the aminoxanthene dye was solubilised with 100 μl/well unbuffered Tris base (10 mM; Serva) on an orbital shaker for at least 30 min in the dark. The optical density was measured on a BioTek EL808 microplate reader at an absorbance of 490 and 450 nm (reference wavelength) and was used to determine the percentage of cell-growth inhibition. IC50 values were calculated with SigmaPlot12.5 using a three-parameter logistic sigmoidal dose-response curve between the calculated growth inhibition and the compound concentration.

[2] = system: HCT116 (colon cancer cells); experiment: as above; type: cell-based; details: HCT116, 72 h compound exposure, mean of 3 independent experiments
Procedure: as §1

[3] = system: SiHa cells (cervical cancer); experiment: as above; type: cell-based; details: 72 h compound exposure, mean of 3 independent experiments
Procedure: as §1

[4] = system: cancer cell lines (HCT116, NCI-H460, SiHa); experiment: In vitro anticancer activity, statements over all cell lines tested; details: 72 h compound exposure
Procedure: as §1

[5] = Solubility in water

Row | Compound | IC50 [1] [µM] | IC50 [2] | IC50 [3] [µM] | cytotoxicity to cancer cell lines [4] | Solubility in water [5] [mM] | IC50 ([1]; Homo sapiens) [µM] | IC50 ([2]; Homo sapiens, HCT-116) [µM] | IC50 ([3]; Homo sapiens) [µM] | solubility ([5]; water) [mM]
1 | O=C(Nc1cc[n+](Cc2ccccc2)cc1)c1ccccn1.[C-]#[O+].[C-]#[O+].[C-]#[O+].[Cl][Ru-]([Cl])[Cl] [Compound 1, [HL][Ru(CO)3Cl3]] | 73 | 24 µM | 26 | most active compound in all cancer cell lines tested; also recorded: moderately cytotoxic | 1.45 |  |  |  | 
2 | CC[N+](CC)(CC)CC.[C-]#[O+].[C-]#[O+].[C-]#[O+].[Cl-].[Cl-].[Cl-].[Ru+2] [Compound 2, [Et4N][Ru(CO)3Cl3]] | > 1600 | > 1600 µM | > 1600 | non-cytotoxic in the investigated concentration range; also recorded: not active against any of the cancer cell lines | 6.78 |  |  |  | 
3 | Cl.O=C(Nc1cc[n+](Cc2ccccc2)cc1)c1ccccn1 [[HL]Cl, 1-Benzyl-4-(picolinamido)pyridinium chloride] |  |  |  |  |  | 54 | 20 | 30 | 12.3
4 | O=C(N=c1ccn(Cc2ccccc2)cc1)c1ccccn1.[C-]#[O+].[C-]#[O+].[C-]#[O+].[C-]#[O+].[C-]#[O+].[C-]#[O+].[Cl][Ru+].[Cl][Ru-]([Cl])[Cl] [pH-CORM-1, [Ru(CO)3Cl(L)][Ru(CO)3Cl3]] | 164 | ≤ 119 µM and 119 µM | 148 | moderately cytotoxic | 1.56 |  |  |  | 
